Test results from US20040214305A1, “Method of improving biomass yield of lactic acid bacterial cultures” (DANMARKS TEKNISKE UNIVERSITET, priority 2000, published 2004).

Tests used:
[1] = test system: commercial mixed strain starter culture of Lactococcus lactis; assay: Biomass production in pH controlled aerobic batch in complex media with haemin; type: cell-based; settings: for Yield (OD600nm): haemin, aerobic pH controlled batch
Experimental: A commercial mixed strain starter culture of Lactococcus lactis was applied in this Example. The cultivations were performed on complex media containing hydrolysed skimmed milk powder, yeast extract, essential vitamins and minerals and either lactose or maltose as carbon source. Furthermore, the media were supplemented with haemin. Medium 1 and Medium 2 were optimised with respect to the cellular yield on respectively lactose and maltose as carbon source. All media were adjusted to an initial pH of 6.5.
The cultivations were inoculated with concentrated cell suspensions of the L. lactis culture. Air was sparged through the cultivation broths at a rate sufficient to maintain the dissolved oxygen concentration above 50% of saturation level. The cultivations were conducted at a temperature of 30° C. The cultures were allowed to acidify to pH 6.2, and subsequently maintained at pH 6.2 by controlled addition of 13.4 N NH4OH. Samples were collected throughout the cultivations for measurements of the optical density using a Hitachi U-1100 Spectrophotometer at […].

[2] = test system: phospho-β-D-galactosidase in FHCY-1 cells; assay: Phospho-beta-galactosidase activity (ONPG-P substrate) as lac operon expression; type: cell-based, Lactococcus lactis subsp. lactis; settings: for Specific activity of phospho-β-D-galactosidase: FHCY-1 cells grown in M17 on the carbon/energy source, average of two determinations
Experimental: The expression of the lac operon in the cells grown on the various sugars was also tested by measuring the activity of the enzyme phospho-beta-galactosidase. Samples were taken from the cultures in FIG. 2 and processed as described previously (Jensen and Hammer, 1998). Subsequently, the activity of phospho-beta-galactosidase was determined as the standard determination of beta-galactosidase, except that o-nitrophenyl-beta-D-galactopyranoside 6-phosphate (ONPG-P) was used as the chromogenic substrate instead of o-nitrophenyl-beta-D-galactopyranoside (ONPG).

[3] = test system: Lactococcus lactis subsp. cremoris PJ4662; assay: Biomass yield (OD600) in aerobic batch culture in defined SA medium; type: cell-based; settings: for Biomass: PJ4662, batch, maltose alone = 100; for Biomass / Increase of yield of biomass relative to MSA: SA medium with 0.1% maltose; for Increase of yield of biomass relative to MSA / Increase of yield of biomass relative to GSA: PJ4662, aerobic; for Increase of yield of biomass relative to GSA: SA medium with growth limiting glucose
Experimental: Wild type L. lactis subsp. cremoris PJ4662, a derivative of the strain MG1363 containing the pAK80 plasmid (Israelsen et al., 1995) was grown aerobically in defined SA medium (Jensen and Hammer, 1993) supplemented with a growth limiting concentration of glucose (GSA), and in GSA medium further supplemented with haemin (GSA+H), heamin+lipoic acid (GSA+H+L) and: lipoic acid alone (GSA+L). The biomass yield was estimated by measuring the optical density at 600 nm (OD600). The yield of biomass increased by about 12% relative to the yield obtained with GSA when the medium was supplemented with haemin, by about 25% using the haemin+lipoic acid supplement and by about 7% using lipoic acid alone.
L. lactis subsp. cremoris PJ4662 was grown aerobically in defined SA medium (Jensen and Hammer, 1993) supplemented with a growth-limiting concentration of 0.1% maltose (MSA), and in MSA medium further supplemented with haemin (MSA+H), haemin+lipoic acid (MSA+H+L) and lipoic acid alone (MSA+L). The biomass yield was estimated by measuring the optical density at 600 nm (OD600), see Table 1.2 below.
It was also tested whether the extent of aeration affected the biomass yield and the amount of ATP produced by oxidative phosphorylation by performing an experiment (Table 1.3) using more vigorous aeration as compared to the experiment illustrated in Table 1.2.
Wild type L. lactis subsp. cremoris PJ4662, a derivative of the strain MG1363 containing the pAK80 plasmid (Israelsen et al., 1995) was grown aerobically in defined SA medium (Jensen and Hammer, 1993) supplemented with a growth limiting concentration of galactose and lipoic acid (GaSAL), and in GaSAL medium further supplemented with haemin+lipoic acid (GaSALH). The biomass yield was estimated by measuring the optical density at 600 nm (OD600). The yield of biomass increased by 30% relative to the yield obtained with GaSAL when the medium was supplemented with haemin (GaSALH). A chemostat experiment was also performed with cells grown on galactose. Here the biomass increased by 75% compared to the biomass obtained in GaSAL medium.

[4] = test system: Lactococcus lactis subsp lactis FHCY-1; assay: Growth in M17 batch cultures supplemented with different sugars; type: cell-based; settings: FHCY-1, M17 medium
Experimental: Therefore, the growth of the starter culture strain, FHCY-1, was tested on various sugars.

[5] = test system: Lactococcus lactis subsp. cremoris; assay: Intracellular [ATP]/[ADP] ratio in exponentially growing aerobic cultures; type: cell-based; settings: MSA+L+H versus MSA+L
Experimental: The intracellular concentrations of ATP and ADP was measured to test whether the addition of a porphyrin to a culture growing on a poor carbon/energy source would increase the [ATP]/[ADP] ratio as might be expected if the ATP synthase starts to produce ATP. Samples were taken from exponentially growing cultures of Lactococcus lactis subsp. cremoris at cell densities between 0.2 and 0.8 (OD600). The total intracellular metabolite content were extracted as described previously (Andersen et al., 2001) and the concentrations of ATP and ADP were determined as described in Jensen et al. (1 993).

atp mutant strain PJ4699 = assay: Biomass yield (OD600) of atp mutant strain with lower H+-ATPase expression; type: cell-based, Lactococcus lactis; settings: PJ4699, no nisin
Source text: In order to investigate whether or not the surplus of ATP that was found in the cultures cultivated in maltose medium (with haemin and lipoic acid) is due to oxidative phosphorylation it was decided to compare the biomass yield of a wild type strain and a strain which, relative to the wild type strain, has a lower expression of the H^+-ATPase complex. For that purpose a mutant strain of the MG1363 strain, PJ4699, was used. In this mutant strain the native promoter of the chromosomal atp operon has been replaced with the nisA promoter (de Ruyter et al., 1996).
This mutant therefore permitted an experiment to be performed where the biomass yield of the wild type strain and the H^+-ATPase mutant which had lower expression of the H^+-ATPase was compared. If ATP is synthesised by the H^+-ATPase complex, then the biomass yield on maltose should be lower in the mutant cells having lower activity of this enzyme, under conditions where oxidative phosphorylation is observed.

[6] = Medium 1 (optimised for growth on lactose)

| Compound | Yield (OD600nm) [1, 6] | Specific activity of phospho-β-D-galactosidase [2] | Increase of yield of biomass relative to MSA [3] | Increase of yield of biomass relative to GSA [3] | also measured |
| --- | --- | --- | --- | --- | --- |
| OC[C@H]1O[C@@H](O[C@H]2[C@H](O)[C@@H](O)C(O)O[C@@H]2CO)[C@H](O)[C@@H](O)[C@H]1O (stereo partly drawn) [Lactose, lactose] | 48 OD600nm | 149.5 |  |  |  |
| OC[C@H]1O[C@H](O[C@H]2[C@H](O)[C@@H](O)[C@H](O)O[C@@H]2CO)[C@H](O)[C@@H](O)[C@@H]1O [maltose] | 60 OD600nm | 37.5 |  |  | Yield (OD600nm) ([1]; Medium 2 (optimised for growth on maltose)): 96 OD600nm; Increase of final yield of biomass compared to the lactose culture ([1]; medium 1, haemin, aerobic): 25%; Yield of biomass compared to optimised lactose medium ([1]; medium 2, haemin, aerobic): two-fold higher; Biomass ([3]; moderate aeration): 100%; Biomass ([3]; vigorous aeration): 100% |
| O=C(O)CCCC[C@@H]1CCSS1 (racemic) [lipoic acid] |  |  | 48% | about 7% |  |
| O=C[C@H](O)[C@@H](O)[C@@H](O)[C@H](O)CO [Galactose, galactose] |  | 172.2 |  |  | Reduction of growth compared to lactose [4]: approximately 20%; Increase of phospho-β-D-galactosidase activity compared to lactose ([2]; FHCY-1 cells): 20% |
| haemin |  |  | 33% | about 12% | Growth rate increase of haemin culture versus culture without haemin [5]: 30%; Growth of the nisin-dependent atp mutant without nisin (atp mutant strain PJ4699): capable of growth without nisin |
